# Assay results reported in patent US12414961B2, “Substituted nucleosides and nucleotides for treating viral infections” (priority 2013, dated 2025).
# Legend:
# Influenza A H1N1 = Influenza A H1N1 antiviral assay; format: cell-based; conditions: Influenza A virus, H1N1, read-out: Influenza A H1N1 EC50
# Influenza A H3N2 = Influenza A H3N2 antiviral assay; format: cell-based; conditions: Influenza A virus, H3N2, read-out: Influenza A H3N2 EC50
# [1] = system: Influenza A H5N1 (low path); assay: microbe, parasite or virus in culture; format: cell-based; conditions: H5N1, read-out: Influenza A H5N1 (low path) EC50
# Influenza B = Influenza B antiviral assay; format: cell-based; conditions: Influenza B virus
# RSV = RSV antiviral assay; format: cell-based; conditions: human respiratory syncytial virus
# SARS = assay: microbe, parasite or virus in culture; format: cell-based; conditions: Severe acute respiratory syndrome coronavirus, read-out: SARS EC50
# Measles = Measles antiviral assay; format: cell-based, Measles virus; conditions: Measles morbillivirus
# CHIK Virus = CHIK Virus screening assay; format: cell-based, CHIKV; conditions: Chikungunya virus, read-out: CHIK Virus EC50
# Dengue Virus = Dengue Virus screening assay; format: cell-based, DENV
# RVFV = assay: microbe, parasite or virus in culture; format: cell-based; conditions: Rift Valley fever virus, read-out: RVFV EC50
# Tacaribe Virus = assay: microbe, parasite or virus in culture; format: cell-based, TCRV; conditions: Mammarenavirus tacaribeense, read-out: Tacaribe Virus EC50
# VEEV = assay: microbe, parasite or virus in culture; format: cell-based; conditions: Venezuelan equine encephalitis virus, read-out: VEEV EC50
# West Nile Virus = West Nile Virus screening assay; format: cell-based, WNV; conditions: read-out: West Nile Virus EC50
# CEM = assay: Cytotoxicity (CC50) CEM; conditions: read-out: Cytotoxicity (CC50 uM) CEM; CEM
# Huh-7 = assay: Cytotoxicity (CC50) Huh-7; conditions: read-out: Cytotoxicity (CC50 uM) Huh-7; Huh-7
# HepG2 = assay: Cytotoxicity (CC50) HepG2; conditions: read-out: Cytotoxicity (CC50 uM) HepG2; HepG2
# GT1b replicon cells = assay: Cytotoxicity in GT1b replicon cells; format: cell-based
# Cytotoxicity (CC50) CEM = conditions: human, CEM cells
# [2] = Cytotoxicity (CC50) Huh-7; conditions: human, Huh-7 cells
# [3] = Cytotoxicity (CC50) HepG2; conditions: human, HepG2 cells
# [4] = Cytotoxicity in Huh-7 cells (Dengue assay); conditions: human, Huh-7 cells
# Dengue Type 2 [5] = assay: Anti-Dengue virus cytoprotection assay, Huh-7 cells; conditions: Huh-7, read-out: Dengue Type 2 Huh-7 Cells (EC50 uM)
# [6] = Cytotoxicity in Vero cells (Dengue assay); conditions: African green monkey
# Dengue Type 2 [7] = assay: Anti-Dengue virus cytoprotection assay, Vero cells; conditions: read-out: Dengue Type 2 Vero Cells (EC50 uM)
# [8] = Cytotoxicity (CC50) BxPC3; conditions: human, BxPC3 cells
# Huh-7 cells = assay: Cytotoxicity in Huh-7 cells of the HCV replicon assay; conditions: read-out: Huh-7 cells (CC50 uM)
# BxPC3 = assay: Cytotoxicity (CC50) BxPC3; conditions: read-out: Cytotoxicity (CC50 uM) BxPC3; BxPC3
smiles,measurement,setting,value
CNc1ccn([C@@H]2O[C@H](CO)[C@H](O)C2F)c(=O)n1 (stereo partly drawn) [EFVX-01853],EC50,Influenza A H1N1,> 100 µM
same,EC50,Influenza A H3N2,> 100 µM
same,EC50,[1],> 100 µM
same,EC50,Influenza B,> 100 µM
same,EC50,RSV,> 100 µM
same,EC50,SARS,> 100 µM
same,EC50,Measles,> 100 µM
same,EC50,CHIK Virus,> 100 µg/mL
same,EC50,Dengue Virus,> 100 µg/mL
same,EC50,RVFV,> 100 µg/mL
same,EC50,Tacaribe Virus,> 100 µg/mL
same,EC50,VEEV,> 100 µg/mL
same,EC50,West Nile Virus,> 100 µg/mL
C[C@@]1(F)C(O)[C@@H](CO)O[C@H]1n1ccc(=S)[nH]c1=O (stereo partly drawn),CC50,CEM,> 400 µM
same,CC50,Huh-7,> 400 µM
same,CC50,HepG2,> 400 µM
CC(C)OC(=O)[C@H](C)N[P@](=O)(OC[C@H]1O[C@@H](n2ccc(=O)[nH]c2=O)[C@](C)(F)C1O)Oc1ccccc1 (stereo partly drawn) [drawing 373],CC50,CEM,> 400 µM
same,CC50,Huh-7,279 µM
same,CC50,HepG2,365 µM
Nc1ccn([C@@H]2O[C@H](CO)[C@H](O)C2F)c(=S)n1 (stereo partly drawn) [EFVX-01857],EC50,Influenza A H1N1,> 100 µM
same,EC50,Influenza A H3N2,> 100 µM
same,EC50,[1],> 100 µM
same,EC50,Influenza B,> 100 µM
same,EC50,RSV,> 100 µM
same,EC50,SARS,> 87 µM
same,EC50,Measles,> 100 µM
same,EC50,CHIK Virus,> 100 µg/mL
same,EC50,Dengue Virus,> 100 µg/mL
same,EC50,RVFV,> 100 µg/mL
same,EC50,Tacaribe Virus,> 100 µg/mL
same,EC50,VEEV,> 100 µg/mL
same,EC50,West Nile Virus,> 100 µg/mL
CC(C)OC(=O)[C@H](C)N[P@](=O)(OC[C@H]1O[C@@H](n2ccc(=O)[nH]c2=S)[C@](C)(O)C1O)Oc1ccccc1 (stereo partly drawn) [drawing 384],CC50,GT1b replicon cells,> 10 µM
C#C[C@]1(COP(=O)(N[C@@H](C)C(=O)OC(C)C)Oc2ccccc2)O[C@@H](n2ccc(=O)[nH]c2=S)C(O)[C@H]1O (stereo partly drawn),CC50,Cytotoxicity (CC50) CEM,> 400 µM
same,CC50,[2],> 400 µM
same,CC50,[3],> 400 µM
same,CC50,[4],> 100 µM
same,EC50,Dengue Type 2 [5],> 100 µM
CC(C)OC(=O)[C@H](C)N[P@](=O)(OC[C@H]1O[C@@H](n2ccc(=O)[nH]c2=S)C(C)(O)[C@H]1O)Oc1ccccc1 (stereo partly drawn) [drawing 388],CC50,Cytotoxicity (CC50) CEM,> 400 µM
same,CC50,[2],252 µM
same,CC50,[3],> 400 µM
same,CC50,[6],> 100 µM
same,CC50,[4],> 100 µM
same,EC50,Dengue Type 2 [7],2.35 µM
same,EC50,Dengue Type 2 [5],5.62 µM
CC(C)OC(=O)[C@H](C)N[P@@](=O)(OC[C@H]1O[C@@H](n2ccc(=O)[nH]c2=S)[C@](C)(O)C1O)Oc1ccccc1 (stereo partly drawn),CC50,CEM,> 400 µM
same,CC50,Huh-7,> 400 µM
same,CC50,HepG2,> 400 µM
CC1(O)[C@@H](O)[C@@H](CO)O[C@H]1n1ccc(=O)[nH]c1=S (stereo partly drawn),CC50,Cytotoxicity (CC50) CEM,> 200 µM
same,CC50,[2],> 100 µM
same,CC50,[3],> 400 µM
same,CC50,[8],> 100 µM
same,CC50,[6],> 100 µM
same,CC50,[4],> 100 µM
same,EC50,Dengue Type 2 [5],> 100 µM
C[C@@]1(O)C(O)[C@@H](COP(=O)(O)O)O[C@H]1n1ccc(=O)[nH]c1=S (stereo partly drawn),CC50,CEM,> 400 µM
same,CC50,Huh-7,> 400 µM
same,CC50,HepG2,> 400 µM
same,CC50,Huh-7 cells,> 100 µM
C[C@@]1(O)C(O)[C@@H](CO)O[C@H]1n1ccc(=O)[nH]c1=S (stereo partly drawn),CC50,CEM,> 200 µM
same,CC50,Huh-7,> 100 µM
same,CC50,HepG2,> 400 µM
same,CC50,BxPC3,> 100 µM
C[C@@]1(O)C(O)[C@@H](CO)O[C@H]1n1ccc(=S)[nH]c1=O (stereo partly drawn),CC50,CEM,> 400 µM
same,CC50,Huh-7,> 100 µM
same,CC50,HepG2,> 400 µM
same,CC50,BxPC3,> 100 µM
CC(C)OC(=O)[C@H](C)NP(=O)(OC[C@H]1O[C@@H](n2ccc(=S)[nH]c2=O)[C@@H](O)C1O)Oc1ccccc1 (stereo partly drawn),CC50,HepG2,> 400 µM
C[C@H](NP(=O)(O)OC[C@H]1O[C@@H](n2ccc(=O)[nH]c2=S)[C@](C)(O)C1O)C(=O)O (stereo partly drawn),CC50,CEM,> 400 µM
same,CC50,Huh-7,> 400 µM
same,CC50,HepG2,> 400 µM
same,CC50,Huh-7 cells,> 100 µM
